Laboratory results: ChEMBL document CHEMBL1201862, “PubChem BioAssay data set” (2004)
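Following 48 hours of exposure in 96-well plates, responses at five concentrations were used to interpolate endpoints linearly. GI50 is the concentration that inhibits growth by half.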 The source made the active and inactive calls. Rule as the data show it: active = GI50 up to about 1.1 µM and inactive = higher.

Experiments:
Assay in all cases: DTP human tumour cell line panel, 48 h
[1] = test system: 786-0
[2] = test system: A498
[3] = test system: A549
[4] = test system: ACHN
[5] = test system: BT-549
[6] = test system: CAKI-1
[7] = test system: CCRF-CEM
[8] = test system: COLO 205
[9] = test system: DU-145
[10] = test system: EKVX
[11] = test system: HCC 2998
[12] = test system: HCT-116
[13] = test system: HCT-15
[14] = test system: HL-60
[15] = test system: HOP-62
[16] = test system: HOP-92
[17] = test system: HT-29
[18] = test system: Hs-578T
[19] = test system: IGROV-1
[20] = test system: K562
[21] = test system: KM12
[22] = test system: LOX IMVI
[23] = test system: M14
[24] = test system: MCF7
[25] = test system: MDA-MB-231
[26] = test system: MDA-MB-435
[27] = test system: MDA-N
[28] = test system: MOLT-4
[29] = test system: NCI-H226
[30] = test system: NCI-H23
[31] = test system: NCI-H460
[32] = test system: NCI-H522
[33] = test system: NCI/ADR-RES
[34] = test system: OVCAR-3
[35] = test system: OVCAR-4
[36] = test system: OVCAR-5
[37] = test system: OVCAR-8
[38] = test system: PC-3
[39] = test system: RXF 393
[40] = test system: SF-268
[41] = test system: SF-295
[42] = test system: SF-539
[43] = test system: SK-MEL-28
[44] = test system: SK-MEL-2
[45] = test system: SK-MEL-5
[46] = test system: SK-OV-3
[47] = test system: SN12C
[48] = test system: SNB-19
[49] = test system: SW-620
[50] = test system: T47D
[51] = test system: TK-10
[52] = test system: U-251
[53] = test system: UACC-257
[54] = test system: UACC-62
[55] = test system: UO-31
[56] = test system: RPMI-8226
[57] = test system: SNB-75

For `CN1c2ccccc2S(=O)(=O)n2c(CCc3ccccc3)nnc21`, the GI50 [1] was 54.1 µM (inactive), the GI50 [2] was 39.1 µM (inactive) and the GI50 [3] was > 100 µM (inactive). The GI50 [4] was > 100 µM (inactive), the GI50 [5] was > 100 µM (inactive) and the GI50 [6] was 44.1 µM (inactive). For the same molecule, the GI50 [7] was > 100 µM (inactive), the GI50 [8] was > 100 µM (inactive) and the GI50 [9] was > 100 µM (inactive). The GI50 [10] was > 100 µM (inactive), the GI50 [11] was > 100 µM (inactive) and the GI50 [12] was > 100 µM (inactive). The GI50 [13] was over 100 µM, the GI50 [14] was > 100 µM (inactive) and the GI50 [15] was 41.2 µM (inactive). For the same molecule, the GI50 [16] was 37.8 µM (inactive), the GI50 [17] was > 100 µM (inactive) and the GI50 [18] was 79.4 µM (inactive). The GI50 [19] was > 100 µM (inactive), the GI50 [20] was > 100 µM (inactive) and the GI50 [21] was > 100 µM (inactive). For the same molecule, the GI50 [22] was > 100 µM (inactive), the GI50 [23] was > 100 µM (inactive) and the GI50 [24] was > 100 µM (inactive). For the same molecule, the GI50 [25] was > 100 µM (inactive), the GI50 [26] was > 100 µM (inactive) and the GI50 [27] was > 100 µM (inactive). The GI50 [28] was > 100 µM (inactive), the GI50 [29] was > 100 µM (inactive) and the GI50 [30] was > 100 µM (inactive). The GI50 [31] was 98.6 µM (inactive), the GI50 [32] was 43.9 µM (inactive) and the GI50 [33] was > 100 µM (inactive). The GI50 [34] was > 100 µM (inactive), the GI50 [35] was 82 µM (inactive) and the GI50 [36] was > 100 µM (inactive). For the same molecule, the GI50 [37] was > 100 µM (inactive), the GI50 [38] was > 100 µM (inactive) and the GI50 [39] was > 100 µM (inactive). For the same molecule, the GI50 [40] was > 100 µM (inactive), the GI50 [41] was 56.2 µM (inactive) and the GI50 [42] was > 100 µM (inactive). For the same molecule, the GI50 [43] was > 100 µM (inactive), the GI50 [44] was > 100 µM (inactive) and the GI50 [45] was > 100 µM (inactive). The GI50 [46] was > 100 µM (inactive), the GI50 [47] was > 100 µM (inactive) and the GI50 [48] was > 100 µM (inactive). For the same molecule, the GI50 [49] was > 100 µM (inactive), the GI50 [50] was > 100 µM (inactive) and the GI50 [51] was > 100 µM (inactive). For the same molecule, the GI50 [52] was > 100 µM (inactive), the GI50 [53] was > 100 µM (inactive) and the GI50 [54] was > 100 µM (inactive). The GI50 [55] was > 100 µM (inactive).

`Sc1nnc(NNc2ccccc2)n1Nc1ccccc1` was tested, and the GI50 [1] was > 71 µM (inactive), the GI50 [2] was 39.4 µM (inactive) and the GI50 [3] was 8.97 µM (inactive). For the same molecule, the GI50 [4] was 0.824 µM (active), the GI50 [5] was 8.69 µM (inactive) and the GI50 [6] was > 36.9 µM (inactive). The GI50 [7] was 8.97 µM (inactive), the GI50 [8] was 0.109 µM (active) and the GI50 [9] was > 79.4 µM (inactive). For the same molecule, the GI50 [10] was > 87.3 µM (inactive), the GI50 [11] was 1.78 µM (inactive) and the GI50 [12] was 2.31 µM (inactive). For the same molecule, the GI50 [13] was 2.1 µM, the GI50 [14] was 0.04 µM (active) and the GI50 [15] was 64.3 µM (inactive). For the same molecule, the GI50 [16] was 25.3 µM (inactive), the GI50 [17] was 4.76 µM (inactive) and the GI50 [18] was > 64.3 µM (inactive). The GI50 [19] was 19.8 µM (inactive), the GI50 [20] was 0.0213 µM (active) and the GI50 [21] was 26.1 µM (inactive). The GI50 [23] was 2.02 µM (inactive), the GI50 [24] was 0.508 µM (active) and the GI50 [25] was 44.8 µM (inactive). The GI50 [26] was 0.321 µM (active), the GI50 [27] was 2.05 µM (inactive) and the GI50 [28] was 0.625 µM (active). The GI50 [29] was 22.6 µM (inactive), the GI50 [30] was 28.2 µM (inactive) and the GI50 [31] was 0.146 µM (active). For the same molecule, the GI50 [32] was 42.5 µM (inactive), the GI50 [33] was 34.3 µM (inactive) and the GI50 [34] was > 41.7 µM (inactive). The GI50 [35] was 0.236 µM (active), the GI50 [36] was > 55.2 µM (inactive) and the GI50 [37] was 21.2 µM (inactive). For the same molecule, the GI50 [38] was 44.8 µM (inactive), the GI50 [56] was 2.51 µM (inactive) and the GI50 [39] was 1.78 µM (inactive). For the same molecule, the GI50 [40] was > 82.4 µM (inactive), the GI50 [41] was < 0.01 µM (active) and the GI50 [42] was > 42.5 µM (inactive). The GI50 [43] was > 100 µM (inactive), the GI50 [45] was 0.488 µM (active) and the GI50 [46] was > 100 µM (inactive). For the same molecule, the GI50 [47] was > 95.9 µM (inactive), the GI50 [48] was > 75.9 µM (inactive) and the GI50 [57] was > 44.7 µM (inactive). For the same molecule, the GI50 [49] was 28.7 µM (inactive), the GI50 [50] was 0.528 µM (active) and the GI50 [51] was > 52.6 µM (inactive). For the same molecule, the GI50 [52] was 21.1 µM (inactive), the GI50 [53] was 0.283 µM (active) and the GI50 [54] was 0.0427 µM (active).
